Measurements: patent publication US20070078434A1, “Indications For Local Transport of Anaesthetic Agents By Electrotransport Devices” (Vyteris, Inc., priority 2005, published 2007)
Counter-ions that a name gives are not always drawn. Like-named read-outs stand apart in the source and are kept apart here. Blank lines part the entries; values can stand above or below the compound they belong to.

How the values were obtained:
subjects = test: Study 16: Platform IIA under various treatment conditions; assay type: in vivo, human; settings: patches containing lidocaine 10% with and without epinephrine
anesthetized guinea pigs [1] = settings: guinea pig, in vivo
[2] = codelivered with 300 mg of lidocaine; cited from earlier work
[3] = iontophoresis in vitro across human skin; cited from earlier work
anesthetized guinea pigs [4] = test: In vivo delivery of radiolabeled drug into anesthetized guinea pigs

- amount delivered per patch (anesthetized guinea pigs [1]): 2.4 µg
SMILES: CNCC(O)c1ccc(O)c(O)c1 [epinephrine, 1,2 Beizenediol, 4-[1-hydroxy-2-(methylamino)ethyl]-,(R)—, [R—(R*,R*)]-2,3-dihydroxybutanedioate (1:1) (salt)]
- effect of epinephrine on the anaesthetic effect of lidocaine (subjects): significantly enhanced
- maximum recommended dose [2]: 150 µg

SMILES: CCCN(CC)C(CC)C(=O)Nc1c(C)cccc1C (stereo not shown) [etidocaine]
- cumulative delivery compared with lidocaine [3]: slightly greater delivery

SMILES: CCN(CC)CC(=O)Nc1c(C)cccc1C.Cl [lidocaine, 2-(Diethylamino)-2′,6′-acetoxylidide mono hydrochloride, monohydrate]
- amount delivered per patch (anesthetized guinea pigs [4]): 467 µg

SMILES: CCCNC(C)C(=O)Nc1ccccc1C (stereo not shown) [prilocaine]
- cumulative delivery compared with lidocaine [3]: slightly greater delivery

SMILES: CCN(CC)CCOC(=O)c1ccc(N)cc1 [procaine]
- cumulative delivery compared with lidocaine [3]: slightly greater delivery
